# According to publication PMC9061857, “A fluorogenic probe for granzyme B enables in-biopsy evaluation and screening of response to anticancer immunotherapies” (Nature Communications, 2022):
# Primed or numbered codes have the meaning given here. Where no end group is shown, it is not given here. The star is where a group is joined. BODIPY(FL) = CC1=CC(C)=[N+]2C1=Cc1ccc(CCC(=O)*)n1[B-]2(F)F; Dabcyl′ = quencher
# Assays:
# [1] = biological target: T1, human GzmB (hGzmB) (Homo sapiens, UniProt P10144); assay: Fluorescence assay with recombinant hGzmB (fluorogenic response, time course); assay type: biochemical
# T1 construct: For active GzmB vs pro-GzmB, p < 0.0001
# T1 sequence (P10144 21-247): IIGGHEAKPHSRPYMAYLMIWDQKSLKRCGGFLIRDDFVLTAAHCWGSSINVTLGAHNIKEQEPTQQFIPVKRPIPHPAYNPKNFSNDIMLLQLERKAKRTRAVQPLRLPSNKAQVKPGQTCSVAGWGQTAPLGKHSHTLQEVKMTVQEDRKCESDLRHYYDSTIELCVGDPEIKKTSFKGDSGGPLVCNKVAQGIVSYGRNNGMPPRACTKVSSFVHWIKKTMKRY
# Protocol: Fluorescence-based assays with different enzymes were performed in the appropriate buffers. Probes (25 μM) were added to enzymes (20 nM or at the indicated concentrations) in 384-well plates and their fluorescence emission was recorded at 450 nm (for AMC) or 510 nm (for BODIPY) at 37 °C using a Synergy H1 Hybrid spectrophotometer. In experiments with Ac-IEPD-CHO (50 μM), the inhibitor was preincubated for 1 h with GzmB before the addition of any probe.
# [2] = biological target: T1, human GzmB (hGzmB); assay: HPLC conversion of fluorogenic peptides by hGzmB; assay type: biochemical; conditions: probe 25 μM (Ac-IEPD-AMC 50 μM), TRIS buffer, 37 °C, HPLC-UV
# Protocol: Supplementary Figure 1. Reactivity of fluorogenic substrates against human GzmB and limits of detection. a) Reaction conversion rates (by HPLC-UV detection at 350 nm) for Ac-IEPD-AMC (50 μM) in TRIS buffer (see Methods) at 37 °C containing different concentrations of hGzmB. Data presented as mean values±SEM (n=3 independent biological experiments). b) Reaction conversion rates (by HPLC-UV detection at 500 nm) for the tetrapeptide T1 (25 μM) in TRIS buffer at 37 °C containing different concentrations of hGzmB. Data presented as mean values±SEM (3 independent biological experiments).
# Source data provided as a Source Data file.
# (1 picture or pasted object on this page, not shown here)
# Supplementary Table 1. Chemical structures and reactivity of FRET-based tetrapeptides against human GzmB.
# Code Structure Linker Quencher HPLC conversion HPLC conversion […]
# Supplementary Table 2. Sequences and reactivity of FRET-based hexapeptides against […]
# Code Peptide sequence HPLC conversion
# H1 Ile-Glu-Pro-Asp-Ala-Gly 75%
# H2 Ile-Glu-Pro-Asp-Ser-Gly 80%
# H3 Ile-Glu-Pro-Asp-Ser-Leu 80%
# H4 Ile-Glu-Pro-Asp-Trp-Leu 82%
# H6 Ile-Glu-Pro-Asp-Trp-Arg 40%
# H7 Ile-Glu-Pro-Asp-Arg-Leu 60%
# H5m Ile-Glu-Phe-Asp-Ala-Leu 70%
# [3] = biological target: T2, recombinant human GzmB (Homo sapiens, UniProt P10144); assay: Kinetic measurements (Michaelis-Menten) with recombinant hGzmB; assay type: biochemical; conditions: Supplementary Table 4, recombinant human GzmB
# T2 construct: For active GzmB vs pro-GzmB, p < 0.0001
# T2 sequence (P10144 21-247): as above
# Protocol: Fluorescence-based assays with different enzymes were performed in the appropriate buffers. […] In experiments with Ac-IEPD-CHO (50 μM), the inhibitor was preincubated for 1 h with GzmB before the addition of any probe.
# Supplementary Table 4. Kinetic values determined for hexapeptides H2-H5 against
# Probe Sequence kcat kcat / KM
# [4] = test system: co-cultures of E0771 cells and IL-2-activated CD8+ T cells; assay: Image-based phenotypic drug screen (H5 fluorescence); conditions: for fluorescence signals compared to IL-2 only controls: combination with IL-2
# Protocol: E0771 and CD8+ T cells were co-cultured for 2 days and then incubated with IL-2 (100 U mL^−1) and each individual drug at their respective working concentrations for 3 h (Table S5).
# Wells received 100 U mL^−1 IL-2 (low IL-2) for T cell viability. […] Data as means ± SEM (n = 8). […] Data as means ± SD (n = 5). P-value from two-tailed t-tests.
# E0771 (750 cells/well) and freshly isolated murine CD8+ T cells (6000 cells/well) were plated in 384-well plates as described above. After 2 days of co-culture at 37 °C, cells were further incubated with IL-2 alone (100 or 250 U mL^−1) or IL-2 (100 U mL^−1) in combination with drugs (Table S5) for 3 h. […] Briefly, nuclei were used as seeds to create a pseudo-cell area and GzmB-positive puncta were detected using a top-hat filter (pixel size: 10, circle shape) followed by an average filter (3 × 3 pixels).
# [5] = test system: E0771 cells; assay: Flow cytometry of E0771 cells in co-culture with CD8+ T cells; assay type: cell-based, mouse; conditions: E0771 alone, staurosporine 1 μM, 1 h
# Protocol: Treatments with staurosporine (1 μM) were for 1 h. […]
# mouse CD8+ T cells and mKate-E0771 cells. b) Representative flow cytometry contour plots of E0771 cells in: left) co-cultures of E0771 cells (50,000 cells well-1) and activated […]
# cells well-1), right) E0771 alone cells treated with staurosporine (1 µM, 1 h). c) Representative flow cytometry contour plots of CD8+ T cells in: left) co-cultures of E0771 […]
# 2 h) murine CD8+ T cells (200,000 cells well -1). All cultures in b) and c) were equally […]
# with and without preincubation of the GzmB inhibitor Ac -IEPD-CHO. Data presented as […]
# 633/670 nm (for AF647-Annexin V). Representative plots from independent experiments performed in triplicate. Source data in d provided as a Source Data file.
# [6] = test system: recombinant mouse GzmB; assay: Reactivity against recombinant mouse GzmB (fluorescence); assay type: biochemical; conditions: probe 25 μM, 90 min, 37 °C, mouse pro-GzmB 100 nM pre-activated with cathepsin C
# Protocol: and H5m (both at 25 μM) after incubation for 90 min at 37 °C with recombinant mouse
# pro-GzmB (100 nM) after pre-activation with mouse cathepsin C (5.5 μg mL-1) for 4 h.
# Excitation/emission wavelengths: 450 nm /510 nm. Data presented as mean values±SEM
# (3 independent experiments with 3 technical replicates). Source data provided as a […]
# [7] = test system: E0771 cells alone or in co-culture with CD8+ T cells; assay: Hit validation of AZD5363 by flow cytometry; assay type: cell-based, mouse
# Protocol: (from 3 independent experiments) in E0771 cells alone (50,000 cells well-1) or in co-culture with CD8+ T cells (200,000 cells well-1) and treatment of AZD5363 (1 μM). concentration: 1,000 U mL-1. Excitation/emission wavelengths: 488 nm/525 nm. b) Representative flow cytometry contour plots (from 3 independent experiments; gating […]
# (1 picture or pasted object on this page, not shown here) […]
# strategy shown in Supplementary Figure 7) of E0771 cells (50,000 cells well-1) after co- […]
# 633/670 nm (for AF647-Annexin V). c) Percentages of E0771 cells that were double - […]
# in a). Data presented as mean values±SEM (n=3). […]
# obtained from ONE-ANOVA tests with multiple c omparisons. Source data in c provided
# [8] = biological target: human granzyme B (human) (UniProt P10144)
# Chain of human granzyme B (human) (P10144 21-247): as above
# [9] = probe 25 μM, hGzmB 20 nM, Data 1
# [10] = probe 25 μM, hGzmB 20 nM, Data 2
# [11] = probe 25 μM, hGzmB 20 nM, Data 3
molecule,measurement,setting,value
"IEPDSL [H3, FRET hexapeptide IEPDSL]",S/N ratios,[1]; [9],68
same,t50,[1]; [9],15 min
same,S/N ratios,[1]; [10],76
same,t50,[1]; [10],18 min
same,S/N ratios,[1]; [11],73
same,t50,[1]; [11],14 min
same,"HPLC conversion (20 nM hGzmB, 2 h)",[2],80%
same,kcat,[3],23.6 s⁻¹
"IEPDWR [H6, negative control FRET hexapeptide IEPDWR]",S/N ratios,[1]; [10],39
same,S/N ratios,[1]; [11],40
same,"S/N ratios (fluorescence increase, signal-to-background)","[1]; probe 25 μM, hGzmB 20 nM, mean ± SEM, n = 3",12
same,"HPLC conversion (20 nM hGzmB, 2 h)",[2],40%
"C#CC[C@H](c1nc2cc(Cl)ccc2c(=O)n1Nc1ccccc1)N(CCCN)C(=O)c1cccc(Cl)c1F [C12, ARQ621]",fluorescence signals compared to IL-2 only controls,[4],Increased
"IEPDAG [H1, FRET hexapeptide IEPDAG]",S/N ratios,[1]; [9],61
same,t50,[1]; [9],32 min
same,S/N ratios,[1]; [10],48
same,t50,[1]; [10],38 min
same,S/N ratios,[1]; [11],55
same,t50,[1]; [11],36 min
same,"HPLC conversion (20 nM hGzmB, 2 h)",[2],75%
"CN[C@@H]1C[C@H]2O[C@@](C)([C@@H]1OC)n1c3ccccc3c3c4c(c5c6ccccc6n2c5c31)C(=O)NC4 [staurosporine, reference compound]",Annexin V +ve E0771 cells,[5]; replicate 1,84%
same,viable E0771 cells,[5]; replicate 1,13%
same,Annexin V +ve E0771 cells,[5]; replicate 2,62%
same,viable E0771 cells,[5]; replicate 2,37%
same,Annexin V +ve E0771 cells,[5]; replicate 3,71%
same,viable E0771 cells,[5]; replicate 3,27%
"IEFDAL [H5m, hexapeptide analogue containing phenylalanine, IEFDAL]","HPLC conversion (20 nM hGzmB, 2 h)",[2],70%
same,Fluorescence fold increase,[6]; Data 1,5.6
same,Fluorescence fold increase,[6]; Data 2,7.1
same,Fluorescence fold increase,[6]; Data 3,5.2
same,Fluorescence fold increase,[6]; Data 4,8.2
same,Fluorescence fold increase,[6]; Data 5,10.5
same,Fluorescence fold increase,[6]; Data 6,7.7
same,Fluorescence fold increase,[6]; Data 7,9.6
same,Fluorescence fold increase,[6]; Data 8,8.2
same,Fluorescence fold increase,[6]; Data 9,12.2
"CC(=O)N[C@@H](CSC(=O)[C@]1([C@@H](O)C(C)C)NC(=O)[C@H](C)[C@@H]1O)C(=O)O [C30, Lactacystin]",fluorescence signals compared to IL-2 only controls,[4],Increased
"CO[C@@]12[C@H](COC(N)=O)C3=C(C(=O)C(C)=C(N)C3=O)N1C[C@@H]1N[C@@H]12 [C18, Mitomycin C]",fluorescence signals compared to IL-2 only controls,[4],Increased
AZD5363 [C5],E0771 cells double-stained with probe H5 and AF647-Annexin V,"[7]; AZ only (AZD5363 1 μM), Data1",2%
same,E0771 cells double-stained with probe H5 and AF647-Annexin V,"[7]; AZ only (AZD5363 1 μM), Data2",2%
same,E0771 cells double-stained with probe H5 and AF647-Annexin V,"[7]; AZ only (AZD5363 1 μM), Data3",3%
same,"cancer cell death and H5 labeling, drug on its own","[7]; AZD5363 1 μM alone, E0771 cells",did not induce significant cancer cell death
same,"cancer cell death and H5 emission, drug with IL-2","[7]; AZD5363 1 μM with 100 U mL^−1 IL-2, CD8+ T cell-E0771 co-cultures",caused significant cancer cell death
same,E0771 cells double-stained with probe H5 and AF647-Annexin V,"[7]; IL-2+AZ (AZD5363 1 μM), co-culture with CD8+ T cells, Data1",33%
same,E0771 cells double-stained with probe H5 and AF647-Annexin V,"[7]; IL-2+AZ (AZD5363 1 μM), co-culture with CD8+ T cells, Data2",42%
same,E0771 cells double-stained with probe H5 and AF647-Annexin V,"[7]; IL-2+AZ (AZD5363 1 μM), co-culture with CD8+ T cells, Data3",44%
same,fluorescence signals compared to IL-2 only controls,[4],Increased
same,H5 fluorescence staining in the screen,"[4]; drug 1 μM + IL-2 100 U mL^−1, 3 h",brightest H5 fluorescence staining
"IEPDSG [H2, FRET hexapeptide IEPDSG]",S/N ratios,[1]; [9],67
same,t50,[1]; [9],13 min
same,S/N ratios,[1]; [10],70
same,t50,[1]; [10],15 min
same,S/N ratios,[1]; [11],69
same,t50,[1]; [11],14 min
same,"HPLC conversion (20 nM hGzmB, 2 h)",[2],80%
same,kcat,[3],11.2 s⁻¹
"C/C(=C\c1csc(C)n1)[C@@H]1C[C@@H]2O[C@]2(C)CCC[C@H](C)[C@H](O)[C@@H](C)C(=O)C(C)(C)[C@@H](O)CC(=O)O1 [C13, Epothilone B]",fluorescence signals compared to IL-2 only controls,[4],Increased
"CC(=O)O[C@@]12CO[C@@H]1C[C@H](O)[C@@]1(C)C(=O)[C@H](O)C3=C(C)[C@@H](OC(=O)[C@H](O)[C@@H](NC(=O)OC(C)(C)C)c4ccccc4)C[C@@](O)([C@@H](OC(=O)c4ccccc4)[C@H]21)C3(C)C [C11, Docetaxel]",fluorescence signals compared to IL-2 only controls,[4],Increased
"IEPDRL [H7, negative control FRET hexapeptide IEPDRL]",S/N ratios,[1]; [10],14
same,S/N ratios,[1]; [11],13
same,"HPLC conversion (20 nM hGzmB, 2 h)",[2],60%
"Cn1nnc2c(C(N)=O)ncn2c1=O [C20, Temozolomide]",fluorescence signals compared to IL-2 only controls,[4],Increased
"IEPDWL [H4, FRET hexapeptide IEPDWL]",S/N ratios,[1]; [9],78
same,t50,[1]; [9],51 min
same,S/N ratios,[1]; [10],73
same,t50,[1]; [10],55 min
same,S/N ratios,[1]; [11],75
same,t50,[1]; [11],56 min
same,"HPLC conversion (20 nM hGzmB, 2 h)",[2],82%
same,kcat,[3],28.2 s⁻¹
Ac-IEPD-aldehyde [reference compound],effect on the fluorescence response of H5 to hGzmB,[1]; Ac-IEPD-CHO 50 μM preincubated 1 h with GzmB,markedly reduced
{BODIPY(FL)}-IEPDRL-{Dabcyl′} [hexapeptide H7],conversion (cleavage) by hGzmB,[8],60%
{BODIPY(FL)}-IEPDSG-{Dabcyl′} [hexapeptide H2],conversion (cleavage) after 2 h with 20 nM hGzmB,[8],80%
{BODIPY(FL)}-IEPDAG-{Dabcyl′} [hexapeptide H1],conversion (cleavage) after 2 h with 20 nM hGzmB,[8],75%
{BODIPY(FL)}-IEPDSL-{Dabcyl′} [peptide H3],conversion (cleavage) by hGzmB,[8],80%
{BODIPY(FL)}-IEPDWL-{Dabcyl′} [peptide H4],conversion (cleavage) by hGzmB,[8],82%
